Consider 12 compounds from patent US10077261B2, “Imidazolin-5-one derivative useful as FASN inhibitors for the treatment of cancer” (Janssen Pharmaceutica NV, priority 2012, dated 2018).

For experiment [1], the system named is PC-3M-Luc-C6 prostate cells. Put plainly: In vitro PC-3M-Luc-C6 prostate cell proliferation assay in lipid reduced medium. The conditions noted are these: 96 h, read-out: pIC50 PC-3M-Luc-C6 prostate cell (converted). It counts as cell-based.
For experiment [2], the system named is A2780 ovarian cells. Put plainly: A2780 ovarian cell proliferation assay in lipid reduced medium, without palmitate (MTT). As to conditions: Homo sapiens, A2780, 96 h; read-out: pIC50 A2780 Ovarian Cell, Without Palmitate (converted). It counts as cell-based.
The test system of experiment [3] is A2780 ovarian cells. Description: A2780 ovarian cell proliferation assay in lipid reduced medium, with palmitate (MTT). It counts as cell-based. As to conditions: Homo sapiens, A2780, 96 h; read-out: pIC50 A2780 Ovarian Cell, With Palmitate (converted). The procedure, abridged: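 In this palmitate-supplemented format, compound dilutions (30 μM down to 0.01 μM) are added to cells in lipid-reduced serum with 25 μM palmitate, 0.2% fatty-acid-free BSA and 0.25% ethanol. After four days (96 h) MTT absorbance at 544 nm is recorded and fitted by minimum sum of squares.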

In experiment [4] the test system is LNCaP-Vancouver prostate cells. Description: In vitro LNCaP Vancouver prostate cell proliferation assay in lipid reduced medium. It is filed as cell-based. The conditions noted are these: read-out: pIC50 LNCaP_Vancouver prostate cell (converted).
The target of experiment [5] is T1, hFASN enzyme (full length) (Homo sapiens, UniProt P49327).
T1 construct: 10 μL hFASN enzyme (full length, 300 ng, purified in house); made in house
Description: Fatty Acid Synthase (FASN) inhibition scintillation proximity assay. It is filed as biochemical. As to conditions: for inhibition at 10 µM: read-out: Human FASN % inhibition @ 10 μM, 10 μM test compound; for IC50: read-out: Human FASN pIC50 (converted). The procedure, abridged:
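Read-out relies on hydrophobic ³H-palmitate product, formed from ³H-acetyl-CoA and malonyl-CoA, binding streptavidin imaging beads, measured at 610±20 nm after at least 24 h. Full-length enzyme (300 ng) in phosphate buffer pH 7.5 with DTT; eight compound concentrations, 0.01–30 μM.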

Experiment [6] has as its target Fatty Acid Synthase Keto-reductase Domain (FASN KR) (Homo sapiens, UniProt P49327). Description: Fatty Acid Synthase keto-reductase domain (FASN KR) inhibition, NADPH oxidation at 340 nm.
Description: After 20 minutes incubation at room temperature the plate was measured again (T2).
The decrease in absorbance was calculated as (Absorbance before incubation T1)−(Absorbance following incubation T2).
A plot of Controlmin versus test compound concentration was fitted to a 4-parameter logistic curve using a non-linear least squares regression method.

Structures are written as SMILES.

T1 sequence (P49327 whole entry): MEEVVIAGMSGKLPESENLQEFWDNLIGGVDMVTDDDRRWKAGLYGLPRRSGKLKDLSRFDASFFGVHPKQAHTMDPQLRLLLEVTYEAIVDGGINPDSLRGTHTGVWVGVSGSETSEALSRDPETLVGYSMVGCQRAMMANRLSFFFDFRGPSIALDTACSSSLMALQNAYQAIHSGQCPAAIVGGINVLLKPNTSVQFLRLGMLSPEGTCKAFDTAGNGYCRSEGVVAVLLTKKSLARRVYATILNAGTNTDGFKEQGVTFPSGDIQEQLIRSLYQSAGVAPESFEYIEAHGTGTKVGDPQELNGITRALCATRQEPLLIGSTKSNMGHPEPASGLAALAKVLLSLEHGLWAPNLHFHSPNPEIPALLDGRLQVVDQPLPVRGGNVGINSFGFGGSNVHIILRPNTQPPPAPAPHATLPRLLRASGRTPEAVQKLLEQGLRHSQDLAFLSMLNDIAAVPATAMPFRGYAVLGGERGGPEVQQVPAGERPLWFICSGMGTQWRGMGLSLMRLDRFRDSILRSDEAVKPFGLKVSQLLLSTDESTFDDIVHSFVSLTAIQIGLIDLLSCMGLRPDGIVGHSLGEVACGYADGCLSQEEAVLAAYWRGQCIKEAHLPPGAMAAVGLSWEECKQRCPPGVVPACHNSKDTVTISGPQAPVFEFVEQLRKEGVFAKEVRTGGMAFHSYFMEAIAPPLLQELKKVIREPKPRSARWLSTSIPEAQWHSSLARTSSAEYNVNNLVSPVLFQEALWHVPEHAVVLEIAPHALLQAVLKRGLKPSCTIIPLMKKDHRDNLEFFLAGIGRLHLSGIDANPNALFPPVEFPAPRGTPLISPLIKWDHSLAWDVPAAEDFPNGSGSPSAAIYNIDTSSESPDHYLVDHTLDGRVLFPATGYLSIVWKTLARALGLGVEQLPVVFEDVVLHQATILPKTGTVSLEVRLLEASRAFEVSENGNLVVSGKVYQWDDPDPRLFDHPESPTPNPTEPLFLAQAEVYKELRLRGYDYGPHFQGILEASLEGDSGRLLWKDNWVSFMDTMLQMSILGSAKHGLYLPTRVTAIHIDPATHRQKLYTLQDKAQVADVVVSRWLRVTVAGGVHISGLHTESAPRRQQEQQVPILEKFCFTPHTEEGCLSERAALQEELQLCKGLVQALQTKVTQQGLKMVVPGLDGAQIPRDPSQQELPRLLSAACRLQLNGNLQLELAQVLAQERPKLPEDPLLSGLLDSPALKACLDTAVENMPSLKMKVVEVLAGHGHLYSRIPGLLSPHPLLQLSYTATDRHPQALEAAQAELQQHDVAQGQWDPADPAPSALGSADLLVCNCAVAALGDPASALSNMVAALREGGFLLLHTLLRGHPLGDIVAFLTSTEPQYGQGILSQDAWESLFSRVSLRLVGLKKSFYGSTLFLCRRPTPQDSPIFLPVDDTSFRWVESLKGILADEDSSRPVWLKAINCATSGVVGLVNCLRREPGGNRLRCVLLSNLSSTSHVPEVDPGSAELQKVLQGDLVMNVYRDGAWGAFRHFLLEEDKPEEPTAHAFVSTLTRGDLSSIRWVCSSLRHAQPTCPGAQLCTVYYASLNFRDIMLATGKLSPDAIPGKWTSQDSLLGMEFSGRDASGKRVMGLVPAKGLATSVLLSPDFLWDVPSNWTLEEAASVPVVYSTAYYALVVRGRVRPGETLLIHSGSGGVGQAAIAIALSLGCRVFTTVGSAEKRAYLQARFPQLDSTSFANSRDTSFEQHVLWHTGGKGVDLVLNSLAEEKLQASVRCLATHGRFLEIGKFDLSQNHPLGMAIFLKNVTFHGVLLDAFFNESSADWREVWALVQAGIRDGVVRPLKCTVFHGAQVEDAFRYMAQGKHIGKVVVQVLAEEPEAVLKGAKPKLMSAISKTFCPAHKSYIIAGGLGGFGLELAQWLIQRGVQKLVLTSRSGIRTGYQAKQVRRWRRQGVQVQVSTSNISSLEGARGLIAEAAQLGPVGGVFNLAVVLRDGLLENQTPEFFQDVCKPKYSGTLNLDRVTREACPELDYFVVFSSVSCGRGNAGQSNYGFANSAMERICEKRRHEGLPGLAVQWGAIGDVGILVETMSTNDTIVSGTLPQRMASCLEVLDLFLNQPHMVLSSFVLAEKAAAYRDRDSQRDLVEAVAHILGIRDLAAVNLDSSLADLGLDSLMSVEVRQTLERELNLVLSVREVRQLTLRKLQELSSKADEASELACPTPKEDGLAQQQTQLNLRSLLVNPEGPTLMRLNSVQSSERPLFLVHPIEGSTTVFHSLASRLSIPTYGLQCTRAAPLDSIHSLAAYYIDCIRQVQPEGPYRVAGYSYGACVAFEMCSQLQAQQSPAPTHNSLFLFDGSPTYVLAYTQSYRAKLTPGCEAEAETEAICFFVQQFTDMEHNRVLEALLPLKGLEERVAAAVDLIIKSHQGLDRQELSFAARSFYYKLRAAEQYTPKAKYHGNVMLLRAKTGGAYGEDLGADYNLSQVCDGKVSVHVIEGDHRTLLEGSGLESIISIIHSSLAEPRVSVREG
Chain of Fatty Acid Synthase Keto-reductase Domain (FASN KR) (P49327 whole entry, the tested form may be a part): as the sequence (P49327 whole entry) above

The term inhibition denotes the relative decrease from the control value, in per cent. `O=C(C1CC1)N1CC[C@@H](CN2C(=O)C3(CC3)N=C2c2ccc(-c3ccc4[nH]ccc4c3)nc2)C1` [compound 402, 6-{[(3R)-1-(Cyclopropylcarbonyl)pyrrolidin-3-yl]methyl}-5-[6-(1H-indol-5-yl)pyridin-3-yl]-4,6-diazaspiro[2.4]hept-4-en-7-one]: the IC50 in experiment [1] was 174 nM; with A2780 ovarian cells [2], 174 nM; in the experiment on A2780 ovarian cells [3] it was more than 10 µM; in experiment [4], 1740 nM; in experiment [5], 138 nM; in experiment [6], 302 nM. The inhibition at 10 µM in experiment [5] came out at 102%.

Turning to `Cn1cc(-c2ccc(-c3ccc(C4=NC5(CC5)C(=O)N4C[C@H]4CCN(C(=O)C5CC5)C4)cc3)cc2)cn1` [compound 411, 6-{[(3S)-1-(Cyclopropylcarbonyl)pyrrolidin-3-yl]methyl}-5-[4′-(1-methyl-1H-pyrazol-4-yl)biphenyl-4-yl]-4,6-diazaspiro[2.4]hept-4-en-7-one], the IC50 is 162 nM in experiment [1]; 126 nM with A2780 ovarian cells [2]; more than 10 µM in the experiment on A2780 ovarian cells [3]; 525 nM in experiment [4]; 158 nM in experiment [5]; 427 nM in experiment [6]. In addition, the inhibition at 10 µM in experiment [5] was found to be 100%.

In the case of `O=C(C1CC1)N1CC[C@H](CN2C(=O)C3(CC3)N=C2c2ccc(-c3ccc(-c4cccc(Cl)c4)cc3)cc2)C1` [compound 412, 5-(3″-Chloro-1,1′:4′,1″-terphenyl-4-yl)-6-{[(3S)-1-(cyclopropylcarbonyl)pyrrolidin-3-yl]methyl}-4,6-diazaspiro[2.4]hept-4-en-7-one], the IC50 was 575 nM in experiment [1]; 1620 nM with A2780 ovarian cells [2]; more than 10 µM with A2780 ovarian cells [3]; 457 nM in experiment [4]; 324 nM in experiment [5]; 427 nM in experiment [6]. For the same compound, the inhibition at 10 µM in experiment [5] stood at 96%.

For the compound `Cc1ccc(-c2ccc(-c3ccc(C4=NC5(CC5)C(=O)N4C[C@H]4CCN(C(=O)C5CC5)C4)cc3)cc2)cc1` [compound 413, 6-{[(3S)-1-(Cyclopropylcarbonyl)pyrrolidin-3-yl]methyl}-5-(4″-methyl-1,1′:4′,1″-terphenyl-4-yl)-4,6-diazaspiro[2.4]hept-4-en-7-one], the IC50 in experiment [1] is 479 nM; in the experiment with A2780 ovarian cells [2], approximately 676 nM; in the experiment on A2780 ovarian cells [3], 7.24 µM; in experiment [4], 447 nM; in experiment [5], 302 nM; in experiment [6], 891 nM. For the same compound, the inhibition at 10 µM in experiment [5] is 91%.

As for `O=C(C1CC1)N1CC[C@@H](CN2C(=O)C3(CC3)N=C2c2ccc(-c3ccc4[nH]ncc4c3)c(F)c2)C1` [compound 414, 6-{[(3R)-1-(Cyclopropylcarbonyl)pyrrolidin-3-yl]methyl}-5-[3-fluoro-4-(1H-indazol-5-yl)phenyl]-4,6-diazaspiro[2.4]hept-4-en-7-one], the IC50 in experiment [1] is 178 nM; with A2780 ovarian cells [2] it was approximately 200 nM; in the experiment on A2780 ovarian cells [3], more than 10 µM; in experiment [4], 1150 nM; in experiment [5] it was 135 nM; in experiment [6], 295 nM. Also, the inhibition at 10 µM in experiment [5] came out at 101%.

As to `Cc1sc2ccc(-c3ccc(C4=NC5(CC5)C(=O)N4CC4CN(C(=O)C5CC5)C4)cc3)cc2c1C` [compound 418, 6-{[1-(Cyclopropylcarbonyl)azetidin-3-yl]methyl}-5-[4-(2,3-dimethyl-1-benzothiophen-5-yl)phenyl]-4,6-diazaspiro[2.4]hept-4-en-7-one], the IC50 in experiment [1] is 1580 nM; in the experiment with A2780 ovarian cells [2], approximately 2140 nM; in the experiment with A2780 ovarian cells [3] it was more than 10 µM; in experiment [4], approximately 2510 nM; in experiment [5], 151 nM; in experiment [6], 302 nM. Moreover, the inhibition at 10 µM in experiment [5] worked out at 103%.

As for `O=C(C1CC1)N1CC[C@@H](CN2C(=O)C3(CC3)N=C2c2ccc(-c3ccc4occc4c3)nc2)C1` [compound 420, 5-[6-(1-Benzofuran-5-yl)pyridin-3-yl]-6-{[(3R)-1-(cyclopropylcarbonyl)pyrrolidin-3-yl]methyl}-4,6-diazaspiro[2.4]hept-4-en-7-one], the IC50 in experiment [1] was 1660 nM; in the experiment on A2780 ovarian cells [2], approximately 2090 nM; in the experiment with A2780 ovarian cells [3] it was more than 10 µM; in experiment [4] it was 6460 nM; in experiment [5], 490 nM; in experiment [6], 977 nM. In experiment [5], the inhibition at 10 µM came out at 92%.

For `Cn1ncc2cc(-c3ccc(C4=NC5(CC5)C(=O)N4C[C@@H]4CCN(C(=O)C5CC5)C4)cn3)ccc21` [compound 421, 6-{[(3R)-1-(Cyclopropylcarbonyl)pyrrolidin-3-yl]methyl}-5-[6-(1-methyl-1H-indazol-5-yl)pyridin-3-yl]-4,6-diazaspiro[2.4]hept-4-en-7-one], the IC50 in experiment [1] is 1050 nM; with A2780 ovarian cells [2] it was 1150 nM; in the experiment with A2780 ovarian cells [3] it was more than 10 µM; in experiment [4], 1290 nM; in experiment [6], 1780 nM. For the same compound, the “Human FASN pIC50” value in experiment [5] (hFASN enzyme full length, scintillation proximity assay, "~" = standard error of pIC50 larger than 0.5) is given as 6.34. Besides, in experiment [5], the inhibition at 10 µM came to 94%.

Take `O=C(C1CC1)N1CC[C@@H](CN2C(=O)C3(CC3)N=C2c2ccc(-c3ccc4[nH]ccc4c3)s2)C1` [compound 423, 6-{[(3R)-1-(Cyclopropylcarbonyl)pyrrolidin-3-yl]methyl}-5-[5-(1H-indol-5-yl)thiophen-2-yl]-4,6-diazaspiro[2.4]hept-4-en-7-one]: the IC50 in experiment [1] was 1350 nM; with A2780 ovarian cells [2], 1290 nM; in the experiment on A2780 ovarian cells [3] it was more than 10 µM; in experiment [4] it was 2570 nM; in experiment [5], 316 nM; in experiment [6], 550 nM. Also, in experiment [5], the inhibition at 10 µM came to 90%.

Consider `O=C(C1CC1)N1CC[C@@H](CN2C(=O)C3(CC3)N=C2c2ccc(-c3ccc4sccc4c3)s2)C1` [compound 425, 5-[5-(1-Benzothiophen-5-yl)thiophen-2-yl]-6-{[(3R)-1-(cyclopropylcarbonyl)pyrrolidin-3-yl]methyl}-4,6-diazaspiro[2.4]hept-4-en-7-one], for which the IC50 in experiment [1] was 2190 nM; in the experiment on A2780 ovarian cells [2], approximately 6920 nM; in the experiment on A2780 ovarian cells [3], more than 10 µM; in experiment [4], 3160 nM; in experiment [5], 275 nM; in experiment [6], 646 nM. The inhibition at 10 µM in experiment [5] came out at 93%.

With `O=C(C1CC1)N1CC[C@@H](CN2C(=O)C3(CC3)N=C2c2ccc(-c3ccc4c(c3)N=CC4)s2)C1` [compound 426, 6-{[(3R)-1-(Cyclopropylcarbonyl)pyrrolidin-3-yl]methyl}-5-[5-(3H-indol-6-yl)thiophen-2-yl]-4,6-diazaspiro[2.4]hept-4-en-7-one], the IC50 in experiment [1] was 1740 nM; in the experiment with A2780 ovarian cells [2] it was 2340 nM; in the experiment on A2780 ovarian cells [3], more than 10 µM; in experiment [4] it was 2340 nM; in experiment [5], 347 nM; in experiment [6] it was 708 nM. The inhibition at 10 µM in experiment [5] came out at 94%.

In the case of `O=C(C1CC1)N1CC[C@@H](CN2C(=O)C3(CC3)N=C2c2ccc(-c3cccc4[nH]ncc34)s2)C1` [compound 427, 6-{[(3R)-1-(Cyclopropylcarbonyl)pyrrolidin-3-yl]methyl}-5-[5-(1H-indazol-4-yl)thiophen-2-yl]-4,6-diazaspiro[2.4]hept-4-en-7-one], the IC50 in experiment [1] is 851 nM; in the experiment with A2780 ovarian cells [2], 832 nM; with A2780 ovarian cells [3], more than 10 µM; in experiment [4], 2630 nM; in experiment [5] it was 417 nM; in experiment [6] it was 1120 nM. Also, the inhibition at 10 µM in experiment [5] came to 91%.
